What is called IC50 is the midpoint of a concentration-inhibition curve.

One assay concerns the target T1, human JAK2 (Homo sapiens, UniProt O60674).
T1 construct: human JAK2, amino acids 808-end; His6 (C); purchased Upstate Biotechnology 14-640; host or cells: baculovirus in Sf21 cells
Nature of the assay: JAK2 kinase Alphascreen assay. The format is biochemical. The following applies: recombinant human JAK2 (aa 808-end), 30uM ATP, 60 minutes, room temperature; read-out: JAK inhibitory activity IC50. A general note: Alpha assays give light when donor and acceptor beads are brought close together.

The next assay has as its target T2, human Trk A kinase (Homo sapiens, UniProt P04629).
T2 construct: His; made in house; host or cells: SF9 insect cells
Nature of the assay: Trk A kinase Alphascreen assay. Format: biochemical. The following applies: HIS-tagged intracellular domain of human Trk A, 70 μM ATP, 20 minutes, room temperature; read-out: Trk inhibitory activity IC50. On the procedure:
Trk A kinase activity was measured for its ability to phosphorylate synthetic tyrosine residues within a generic polypeptide substrate using an Amplified Luminescent Proximity Assay (Alphascreen) technology (PerkinElmer, 549 Albany Street, Boston, Mass.).
To measure Trk A kinase activity, the intracellular domain of a HIS-tagged human Trk A kinase (amino acids 442-796 of Trk A, Swiss-Prot Primary Accession Number P04629) was expressed in SF9 cells and purified using standard nickel column chromatography. After incubation of the kinase with a biotinylated substrate and adenosine triphosphate (ATP) for 20 minutes at room temperature, the kinase reaction was stopped by the addition of 30 mM ethylenediaminetetraacetic acid (EDTA). The reaction was performed in 384 well microtitre plates and the reaction products were detected with the addition of strepavidin coated Donor Beads and phosphotyrosine-specific antibodies coated Acceptor Beads using the EnVision Multilabel Plate Reader after an overnight incubation at room temperature.

Each structure is given as a SMILES string.

T1 sequence (O60674 808-1132 limits assumed): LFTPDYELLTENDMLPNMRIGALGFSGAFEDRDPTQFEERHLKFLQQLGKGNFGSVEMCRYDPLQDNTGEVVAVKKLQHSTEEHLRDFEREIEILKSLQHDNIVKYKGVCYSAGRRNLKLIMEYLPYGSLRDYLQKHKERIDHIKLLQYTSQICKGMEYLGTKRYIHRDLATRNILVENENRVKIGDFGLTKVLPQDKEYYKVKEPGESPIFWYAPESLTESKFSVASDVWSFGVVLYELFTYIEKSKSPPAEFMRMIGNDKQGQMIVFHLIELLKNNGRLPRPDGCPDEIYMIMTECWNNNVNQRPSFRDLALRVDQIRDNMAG
T2 sequence (P04629 442-796): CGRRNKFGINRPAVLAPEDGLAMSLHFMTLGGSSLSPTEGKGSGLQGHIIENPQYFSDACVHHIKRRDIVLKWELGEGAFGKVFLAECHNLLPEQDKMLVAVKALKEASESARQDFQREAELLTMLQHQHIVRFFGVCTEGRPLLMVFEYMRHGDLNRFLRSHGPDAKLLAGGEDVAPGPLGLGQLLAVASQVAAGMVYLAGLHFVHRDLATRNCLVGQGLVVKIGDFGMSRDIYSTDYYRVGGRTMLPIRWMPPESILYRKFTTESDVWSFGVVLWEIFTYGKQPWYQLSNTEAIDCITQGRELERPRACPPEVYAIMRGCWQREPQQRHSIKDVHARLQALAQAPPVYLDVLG
Procedure for human JAK2: JAK2 kinase activity was measured for its ability to phosphorylate synthetic tyrosine residues within a generic polypeptide substrate using an Amplified Luminescent Proximity Assay (Alphascreen) technology (PerkinElmer, 549 Albany Street, Boston, Mass.).
To measure JAK2 kinase activity, commercially available purified enzyme, C-terminal His6-tagged, recombinant, human JAK2, amino acids 808-end, (Genbank Accession number NM 004972) expressed by baculovirus in Sf21 cells from Upstate Biotechnology #14-640 was used. After incubation of the kinase with a biotinylated substrate and adenosine triphosphate (ATP) for 60 minutes at room temperature, the kinase reaction was stopped by the addition of 30 mM ethylenediaminetetraacetic acid (EDTA). The reaction was performed in 384 well microtitre plates and the reaction products were detected with the addition of streptavidin coated Donor Beads and phosphotyrosine-specific antibodies coated Acceptor Beads using the EnVision Multilabel Plate Reader after an overnight incubation at room temperature.

With `COc1cc(Nc2nc(N[C@@H](C)c3ncc(F)cn3)ncc2Cl)n[nH]1` [Example 7, 5-Chloro-N^2-[(1S)-1-(5-fluoropyrimidin-2-yl)ethyl]-10-(5-methoxy-1H-pyrazol-3-yl)pyrimidine-2,4-diamine], on human JAK2, the 50% inhibitory concentration (IC50) was 3.9 nM.
For `CC(C)Oc1cc(Nc2nc(NC(C)c3ncc(F)cn3)ncc2Cl)n[nH]1` (centres unmarked) [Example 1, 5-Chloro-N^4-(5-isopropoxy-1H-pyrazol-3-yl)-N^2-[1-(5-fluoropyrimidin-2-yl)ethyl]pyrimidine-2,4-diamine], the IC50 at human Trk A kinase worked out at 33 nM.

The values are drawn from US8088784B2, “4-(3-aminopyrazole) pyrimidine derivatives for use as tyrosine kinase inhibitors in the treatment of cancer” (AstraZeneca AB, priority 2005, dated 2012).
